Measured values reported in patent US20030225081A1, “Pyridazinones and triazinones and medicinal use thereof” (priority 2000, published 2003).

Test system: AMPA receptor
Experiment: Suppressing action to calcium influx into nerve cells induced by AMPA
Type: cell-based
Settings: Fura2-AM, stimulation with 2 μM AMPA, primary culture of rat embryo cerebral cortex nerve cells, 1 μM MK-801
Text: Suppressing Action to Calcium Influx into Nerve Cells Induced by AMPA
The suppressing action of the compounds of the present invention to calcium influx into nerve cells induced by AMPA was investigated using the primary culture system of nerve cells of cerebral cortex of embryo of rat.
Cerebral cortex was cut out from the brain of rat of gestational 18 days and treated with trypsin and DNase to disperse the cells. The cells were flown by MEM containing 10% of serum, sown in a culture bottle and astrocytes were proliferated. The astrocytes were re-dispersed by trypsin and sown in a 96-well plate. After incubation for one week, it was confirmed that the astrocytes covered all over the bottom and then the nerve cells of cerebral cortex which was dispersed by the above method were sown thereupon. After incubation for 24 hours, the medium was changed, the incubation was carried out for one week and, after that, the medium was changed to that containing 1 μM of MK-801. Nerve cells which were incubated for not shorter than 8 to 10 days were used.
Calcium influx into the cells was measured using Fura2-AM which was a calcium-sensitive fluorescent dye. It was treated in a medium containing Fura2-AM for 1 hour, incorporated into the cells, exchanged to a Tyrode solution containing 1 μM MK-801 and stimulation was carried out using 2 μM AMPA. Change in the amount of calcium flown into the cells were measured as the change in the fluorescent intensity at the exciting wave length of 340/380 nm. […] As the control compound, GYKI52466 (Le Peillet, et al., Brain Res., 571, 115, 1992) was used.

Row | Structure (SMILES) | IC50 [nM]
1 | COc1ccccc1N1N=C(c2ccccn2)CC(c2cccnc2)C1=O (stereo not shown) [Example 76, 2-(2-Methoxyphenyl)-4-(3-pyridyl)-6-(2-pyridyl)-4,5-dihydro-3 (2H)-pyridazinone] | 6200
2 | O=c1c(-c2cccnc2)cc(-c2ccccn2)nn1-c1ccccc1Br [Example 61, 2-(2-Bromophenyl)-4-(3-pyridyl)-6-(2-pyridyl)-3 (2H)-pyridazinone] | 300
3 | O=C1N(c2ccsc2)CC(c2ccccn2)=NN1c1ccccc1 [Example 105, 2-Phenyl-6-(2-pyridyl)-4-(thiophen-3-yl)-4,5-dihydro-1,2,4-triazin-3 (2H)-one] | 200
4 | COc1ccccc1C1CC(c2ccccn2)=NN(c2ccccc2C#N)C1=O (stereo not shown) [Example 39, 2-(2-Cyanophenyl)-4-(2-methoxyphenyl)-6-(2-pyridyl)-4,5-dihydro-3 (2H)-pyridazinone] | 50
5 | O=C1C(c2ccccc2Br)CC(c2ccccn2)=NN1c1ccccc1 (stereo not shown) [Example 25, 4-(2-Bromophenyl)-2-phenyl-6-(2-pyridyl)-4,5-dihydro-3 (2H)-pyridazinone] | 200
6 | COc1ccccc1-c1cc(-c2ccccn2)c(=O)n(-c2ccccc2Br)n1 [Example 5, 2-(2-Bromophenyl)-6-(2-methoxyphenyl)-4-(2-pyridyl)-3 (2H)-pyridazinone] | 6700
7 | COc1ccc(Br)cc1C1CC(c2ccccn2)=NN(c2ccccc2Br)C1=O (stereo not shown) [Example 16, 2-(2-Bromophenyl)-4-(3-bromo-6-methoxyphenyl)-6-(2-pyridyl)-4,5-dihydro-3 (2H)-pyridazinone] | 700
8 | O=C1N(c2ccsc2)CC(c2ccccn2)=NN1c1ccccc1Br [Example 106, 2-(2-Bromophenyl)-6-(2-pyridyl)-4-(thiophen-3-yl)-4,5-dihydro-1,2,4-triazin-3 (2H)-one] | 100
9 | O=C1C(c2cccnc2)C2COc3ccccc3C2=NN1c1ccccc1I (stereo not shown) [Example 8, 2-(2-Iodophenyl)-4-(3-pyridyl)-2,3,4,4a-tetrahydro-5H-(1)benzopyrano[4,3-c]pyridazin-3-one] | 100
10 | COc1ccccc1C1CC(c2ccccn2)=NN(c2ccccc2Br)C1=O (stereo not shown) [Example 14, 2-(2-Bromophenyl)-4-(2-methoxyphenyl)-6-(2-pyridyl)-4,5-dihydro-3 (2H)-pyridazinone] | 200
11 | O=c1c(-c2ccccc2Br)cc(-c2ccccn2)nn1-c1ccccc1 [Example 60, 4-(2-Bromophenyl)-2-phenyl-6-(2-pyridyl)-3 (2H)-pyridazinone] | 200
12 | O=C1N(c2ccccc2)CC(c2ccccc2)=NN1c1ccccc1Br [Example 112, 2-(2-Bromophenyl)-4,6-diphenyl-4,5-dihydro-1,2,4-triazin-3 (2H)-one] | 300
13 | N#Cc1ccccc1N1N=C(c2ccccc2O)CN(c2ccccc2)C1=O [Example 93, 2-(2-Cyanophenyl)-6-(2-hydroxyphenyl)-4-phenyl-4,5-dihydro-1,2,4-triazin-3 (2H)-one] | 30
14 | O=C1C(c2cccc(O)c2)CC(c2ccccn2)=NN1c1ccccc1Br (stereo not shown) [Example 2, 2-(2-Bromophenyl)-4-(3-hydroxyphenyl)-6-(2-pyridyl)-4,5-dihydro-3 (2H)-pyridazinone] | 100
15 | N#Cc1ccccc1-n1nc(-c2ncccn2)cc(-c2ccccc2)c1=O [Example 70, 2-(2-Cyanophenyl)-4-phenyl-6-(2-pyrimidinyl)-3 (2H)-pyridazinone] | 800
16 | O=c1c(-c2ccccc2O)cc(-c2ccccn2)nn1-c1ccccc1Br [Example 51, 2-(2-Bromophenyl)-4-(2-hydroxyphenyl)-6-(2-pyridyl)-3 (2H)-pyridazinone] | 800
17 | O=C1C(C(O)c2ccccn2)CC(c2ccccc2)=NN1c1ccccc1 (stereo not shown) [Example 11, 2,6-Diphenyl-4-(a-hydroxy-2-picolyl)-4,5-dihydro-3 (2H)-pyridazinone] | 9900
18 | O=c1c(-c2ccccc2O)cc(-c2ccccn2)nn1-c1ccccc1 [Example 32, 4-(2-Hydroxyphenyl)-2-phenyl-6-(2-pyridyl)-3 (2H)-pyridazinone] | 100
19 | Cc1cccc(-n2nc(-c3ccccn3)cc(-c3cccnc3)c2=O)c1 [Example 64, 2-(3-Tolyl)-4-(3-pyridyl)-6-(2-pyridyl)-3 (2H)-pyridazinone] | 700
20 | COc1ccccc1-c1cc(-c2ccccn2)nn(-c2ccccc2C#N)c1=O [Example 40, 2-(2-Cyanophenyl)-4-(2-methoxyphenyl)-6-(2-pyridyl)-3 (2H)-pyridazinone] | 100

Row | Structure (SMILES) | IC50 [nM]
21 | N#Cc1ccccc1N1CC(c2ccccn2)=NN(c2ccccc2)C1=O [Example 104, 4-(2-Cyanophenyl)-2-phenyl-6-(2-pyridyl)-4,5-dihydro-1,2,4-triazin-3 (2H)-one] | 500
22 | O=c1c(-c2ccccc2)cc(-c2ccccn2)nn1-c1ccccc1Br [Example 56, 2-(2-Bromophenyl)-4-phenyl-6-(2-pyridyl)-3 (2H)-pyridazinone] | 200
23 | COc1ccc(Br)cc1-c1cc(-c2ccccn2)nn(-c2ccccc2C#N)c1=O [Example 44, 2-(2-Cyanophenyl)-4-(3-bromo-6-methoxyphenyl)-6-(2-pyridyl)-3 (2H)-pyridazinone] | 200
24 | N#Cc1ccccc1N1N=C(c2ccccn2)CN(c2cccc(N)c2)C1=O [Example 128, 2-(2-Cyanophenyl)-4-(3-aminophenyl)-6-(2-pyridyl)-4,5-dihydro-1,2,4-triazin-3 (2H)-one] | 100
25 | N#Cc1ccc(-n2nc(-c3ccccn3)cc(-c3ccccc3)c2=O)cn1 [Example 80A, 2-(2-Cyanopyridin-5-yl)-4-phenyl-6-(2-pyridyl)-3 (2H)-pyridazinone] | 7100
26 | COc1ccc(C2CC(c3ccccn3)=NN(c3ccccc3Br)C2=O)cc1 (stereo not shown) [Example 15, 2-(2-Bromophenyl)-4-(4-methoxyphenyl)-6-(2-pyridyl)-4,5-dihydro-3 (2H)-pyridazinone] | 200
27 | O=c1c(-c2ccccc2OS(=O)(=O)C(F)(F)F)cc(-c2ccccn2)nn1-c1ccccc1 [Example 55, 2-Phenyl-6-(2-pyridyl)-4-(2-trifluoromethylsulfonyloxyphenyl)-3 (2H)-pyridazinone] | 800
28 | COc1ccccc1C1CC(c2ccccn2)=NN(c2ccccc2)C1=O (stereo not shown) [Example 18, 4-(2-Methoxyphenyl)-2-phenyl-6-(2-pyridyl)-4,5-dihydro-3 (2H)-pyridazinone] | 100
29 | O=c1c(-c2cccnc2)c2c(nn1-c1ccccc1Br)-c1ccccc1OC2 [Example 57, 2-(2-Bromophenyl)-4-(3-pyridyl)-2,3-dihydro-5H-(1)benzopyrano[4,3-c]pyridazine-3-one] | 200
30 | N#Cc1ccccc1N1CC(c2ccccn2)=NN(c2ccccc2Br)C1=O [Example 111, 2-(2-Bromophenyl)-4-(2-cyanophenyl)-6-(2-pyridyl)-4,5-dihydro-1,2,4-triazin-3 (2H)-one] | 400
31 | COc1ccccc1N1CC(c2ccccn2)=NN(c2ccccc2Br)C1=O [Example 85, 2-(2-Bromophenyl)-4-(2-methoxyphenyl)-6-(2-pyridyl)-4,5-dihydro-1,2,4-triazin-3 (2H)-one] | 200
32 | O=c1c(-c2cccnc2)c2c(nn1-c1ccccc1I)-c1ccccc1OC2 [Example 58, 2-(2-Iodophenyl)-4-(3-pyridyl)-2,3-dihydro-5H-(1)benzopyrano[4,3-c]pyridazin-3-one] | 400
33 | N#Cc1ccccc1N1N=C(c2ccccn2)CC(c2ccccc2O)C1=O (stereo not shown) [Example 41, 2-(2-Cyanophenyl)-4-(2-hydroxyphenyl)-6-(2-pyridyl)-4,5-dihydro-3 (2H)-pyridazinone] | 30
34 | O=C1C(c2ccccc2)CC(c2ccccc2)=NN1c1ccccn1 (stereo not shown) [Example 21, 4,6-Diphenyl-2-(2-pyridyl)-4,5-dihydro-3 (2H)-pyridazinone] | 500
35 | O=c1c(-c2ccccn2)cc(-c2ccccc2O)nn1-c1ccccc1Br [Example 31, 2-(2-Bromophenyl)-6-(2-hydroxyphenyl)-4-(2-pyridyl)-3 (2H)-pyridazinone] | 900
36 | N#Cc1ccccc1N1N=C2c3cc(F)ccc3OCC2C(c2ccccc2)C1=O (stereo not shown) [Example 48, 2-(2-Cyanophenyl)-9-fluoro-4-phenyl-2,3,4,4a-tetrahydro-5H-(1)benzopyrano[4,3-c]pyridazin-3-one] | 100
37 | CSc1ccc(N2CC(c3ccccn3)=NN(c3ccccc3Br)C2=O)cc1 [Example 125, 2-(2-Bromophenyl)-4-(4-thiomethoxyphenyl)-6-(2-pyridyl)-4,5-dihydro-1,2,4-triazin-3 (2H)-one] | 600
38 | O=C1N(c2cc(O)ccc2O)CC(c2ccccc2O)=NN1c1ccccc1 [Example 95, 4-(2,5-Dihydroxyphenyl)-6-(2-hydroxyphenyl)-2-phenyl-4,5-dihydro-1,2,4-triazin-3 (2H)-one] | 50
39 | COc1ccccc1C1=NN(c2ccccc2)C(=O)N(c2ccccc2C#N)C1 [Example 98, 4-(2-Cyanophenyl)-6-(2-methoxyphenyl)-2-phenyl-4,5-dihydro-1,2,4-triazin-3 (2H)-one] | 400
40 | COc1ccccc1C1CC(c2ccccn2)=NN(c2ccccn2)C1=O (stereo not shown) [Example 22, 4-(2-Methoxyphenyl)-2-(2-pyridyl)-6-(2-pyridyl)-4,5-dihydro-3 (2H)-pyridazinone] | 2700
